In patent US11208423B2, “Pyridinamine-pyridone and pyrimidinamine- pyridone compounds” (Sprint Bioscience AB, priority 2017, dated 2021):

Legend:
Vps34 enzyme = Vps34 enzyme (Homo sapiens (Human), UniProt Q8NEB9); experiment: Vps34 Biochemical Assay (Adapta kinase assay); settings: 20 μM ATP / 200 μM PI:PS substrate mix, 1 h at room temperature, TR-FRET, read-out: Median IC50 nM Adapta
Procedure: Dilution series of compounds of the invention were prepared in DMSO at 100 times the final assay concentration (n1=n0/3 in 10 points). The compounds were further diluted to 4 times the assay concentration in assay buffer (Life technologies buffer Q, PV5125, diluted 5 times supplemented with 2 mM DTT and 2 mM MnCl2). 2.5 μl of the diluted compounds were added to a 384 well assay plate followed by 2.5 μl of 16.5 nM Vps34 enzyme (Life technologies, PV5126). Enzyme and compounds were pre-incubated at rt for 15 min. Then 5 μl of substrate mix containing 20 μM ATP (Life technologies, PV3227) and 200 μM PI:PS substrate (Life technologies, PV5122) in assay buffer was added to the wells containing compound and enzyme. Mixing was performed by pipetting several times. The reaction was incubated at room temperature for 1 h. Then 5 μl stop-detection mix, prepared as described in the Adapta kinase assay kit instructions (Life technologies, PV5099) containing Adapta Eu-anti-ADP antibody (2.3 nM), Alexa Fluor 647 ADP tracer (9 nM) and EDTA (30 mM) in TR-FRET buffer, was added to quench the reaction. Mixing was performed by pipetting several times. The assay plate was then incubated at room temperature for 30 min and read with Artemis micro plate reader. Percent inhibition of the compounds as compared to DMSO treated control samples was calculated. By the use of Dotmatics software compound concentration versus percent inhibition was fitted to generate IC50 values.

[1] = tested on: autophagy in HOS cells (GFP-LC3); experiment: High Content Screening Autophagy Assay (GFP-LC3 foci); format: cell-based; settings: Homo sapiens; HOS cells expressing GFP-LC3; autophagy activated with KU-0063794 500 nM plus Bafilomycin A1 5 nM; 6 hours; foci area per cell; read-out: Median IC50 (μM) Cellular assay
Procedure: High Content Screening Autophagy Assay
Human osteosarcoma cells (HOS) stably expressing a Green Fluorescent Protein (GFP) tagged LC3 (GFP-LC3) were used to determine the inhibitory effect on autophagy of proprietary compounds. For that purpose, autophagy was activated by using the mTOR inhibitor KU-0063794 at 500 nM in the presence of Bafilomycin A1 (Sigma-Aldrich) at 5 nM. Shortly, cells were plated overnight in clear bottom 96-well plates in DMEM—High Modified media (Hi-Clone Cat #SH30285.01). At the start of the experiment, the media was removed and replaced with fresh media containing the mTOR inhibitor, Bafilomycin A1 and the vehicle or a test compound as indicated. After 6 hours the media was removed, cells were washed twice with ice-cold phosphate buffered saline (PBS) and fixed with 4% paraformaldehyde for 20 minutes at room temperature. Then the cells were washed twice with ice-cold PBS before adding Hoechst 33342 at 1 μg/ml in PBS for nuclear staining. After incubation overnight at 4° C., cells were washed once with PBS to remove the excess of dye and 100 μl of PBS was added to each well. Images were acquired at 20× magnification, 6 images per well, using the ImageXpress automated microscope (Molecular Devices Inc.) and analyzed with MetaXpress software to identify LC3-GFP foci. Foci area per cell values were used to generate dose response curves and IC50 values were calculated using the non-linear fitting analysis in GraphPad Prism software.
The results of the assay are shown in Table 2 (Median IC50 μM HOS-LC3).

Sequence of Vps34 enzyme (Q8NEB9 whole entry): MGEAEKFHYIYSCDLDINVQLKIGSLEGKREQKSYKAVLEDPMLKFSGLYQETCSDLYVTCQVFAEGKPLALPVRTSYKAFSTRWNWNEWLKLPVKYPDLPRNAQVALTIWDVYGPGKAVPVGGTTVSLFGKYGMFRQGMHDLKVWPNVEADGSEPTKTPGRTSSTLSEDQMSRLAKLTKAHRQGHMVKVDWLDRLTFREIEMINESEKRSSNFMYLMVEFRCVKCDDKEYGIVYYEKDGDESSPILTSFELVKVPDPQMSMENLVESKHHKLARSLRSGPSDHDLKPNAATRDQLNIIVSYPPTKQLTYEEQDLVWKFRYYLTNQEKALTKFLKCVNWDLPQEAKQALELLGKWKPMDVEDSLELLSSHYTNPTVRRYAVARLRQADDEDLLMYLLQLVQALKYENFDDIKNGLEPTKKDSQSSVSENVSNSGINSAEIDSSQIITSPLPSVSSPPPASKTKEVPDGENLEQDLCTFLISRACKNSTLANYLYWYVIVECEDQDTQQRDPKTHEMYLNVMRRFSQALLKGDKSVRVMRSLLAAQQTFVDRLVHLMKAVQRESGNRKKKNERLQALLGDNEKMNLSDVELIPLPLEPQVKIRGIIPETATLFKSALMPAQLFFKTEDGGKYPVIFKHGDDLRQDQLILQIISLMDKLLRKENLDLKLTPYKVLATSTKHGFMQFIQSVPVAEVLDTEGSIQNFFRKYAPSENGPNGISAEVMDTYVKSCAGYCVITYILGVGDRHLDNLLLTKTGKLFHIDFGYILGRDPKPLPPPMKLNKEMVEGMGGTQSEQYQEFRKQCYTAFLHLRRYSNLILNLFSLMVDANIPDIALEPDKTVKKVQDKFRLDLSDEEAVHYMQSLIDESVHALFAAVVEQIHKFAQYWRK

SMILES | IC50 (Vps34 enzyme) [nM] | IC50 [1] [µM]
O=c1cc(-c2ccnc(Nc3ccccc3)n2)cc(-c2ccncc2)[nH]1 [Example 8, 4-(2-Anilinopyrimidin-4-yl)-6-(4-pyridyl)-1H-pyridin-2-one] | 6 | 0.066
O=c1cc(-c2ccnc(Nc3ccccc3)n2)cc(N2CCOCC2)[nH]1 [Example 10, 4-(2-anilinopyrimidin-4-yl)-6-morpholino-1H-pyridin-2-one] | < 5 | 0.019
O=c1cc(-c2ccnc(Nc3ccccc3)n2)cc(N2CCCCC2C(F)(F)F)[nH]1 (stereo not drawn) [Example 21, 4-(2-Anilinopyrimidin-4-yl)-6-[2-(trifluoromethyl)-1-piperidyl]-1H-pyridin-2-one] | < 5 | –
Cc1nccc(Nc2cc(-c3cc(N4CCOCC4C(F)(F)F)[nH]c(=O)c3)ccn2)n1 (stereo not drawn) [Example 26, 4-[2-[(2-Methylpyrimidin-4-yl)amino]-4-pyridyl]-6-[3-(trifluoromethyl)morpholin-4-yl]-1H-pyridin-2-one] | < 5 | 0.01
O=c1cc(-c2ccnc(Nc3ccccc3)n2)cc(N2CCOCC2C(F)(F)F)[nH]1 (stereo not drawn) [Example 27, 4-(2-Anilinopyrimidin-4-yl)-6-[3-(trifluoromethyl)morpholin-4-yl]-1H-pyridin-2-one] | < 5 | 0.02
CCS(=O)(=O)N1CCN(c2cc(-c3ccnc(Nc4ccnc(C)n4)c3)cc(=O)[nH]2)C(C(F)(F)F)C1 (stereo not drawn) [Example 39, 6-[4-Ethylsulfonyl-2-(trifluoromethyl)piperazin-1-yl]-4-[2-[(2-methylpyrimidin-4-yl)amino]-4-pyridyl]-1H-pyridin-2-one] | < 5 | 0.002
Cc1nc(Nc2cc(-c3cc(N4CCOCC4C(F)(F)F)[nH]c(=O)c3)ccn2)cs1 (stereo not drawn) [Example 42, 4-[2-[(2-Methylthiazol-4-yl)amino]-4-pyridyl]-6-[3-(trifluoromethyl)morpholin-4-yl]-1H-pyridin-2-one] | 13 | –
Cc1nc(Nc2cc(-c3cc(-c4ccccc4C(F)(F)F)[nH]c(=O)c3)ccn2)cs1 [Example 52, 4-[2-[(2-Methylthiazol-4-yl)amino]-4-pyridyl]-6-[2-(trifluoromethyl)phenyl]-1H-pyridin-2-one] | 52 | –
Cc1nccc(Nc2cc(-c3cc(-c4cnccc4C)[nH]c(=O)c3)ccn2)n1 [Example 55, 6-(4-Methyl-3-pyridyl)-4-[2-[(2-methylpyrimidin-4-yl)amino]-4-pyridyl]-1H-pyridin-2-one] | < 5 | 0.099
Cc1nccc(Nc2cc(-c3cc(-c4cccnc4C(F)(F)F)[nH]c(=O)c3)ccn2)n1 [Example 57, 4-[2-[(2-Methylpyrimidin-4-yl)amino]-4-pyridyl]-6-[2-(trifluoromethyl)-3-pyridyl]-1H-pyridin-2-one] | < 5 | 0.006
Cc1nccc(Nc2cc(-c3cc(-c4ccccc4Cl)[nH]c(=O)c3)ccn2)n1 [Example 66, 6-(2-Chlorophenyl)-4-[2-[(2-methylpyrimidin-4-yl)amino]-4-pyridyl]-1H-pyridin-2-one] | < 5 | –

Now from value to compound:

IC50 (Vps34 enzyme) [nM] | IC50 [1] [µM] | SMILES
< 5 | – | O=c1cc(-c2ccnc(Nc3ccccc3)n2)cc(-c2ccccc2Cl)[nH]1 [Example 4, 4-(2-anilinopyrimidin-4-yl)-6-(2-chlorophenyl)-1H-pyridin-2-one]
< 5 | 0.054 | O=c1cc(-c2ccnc(Nc3ccccc3)n2)cc(-c2cccnc2)[nH]1 [Example 6, 4-(2-Anilinopyrimidin-4-yl)-6-(3-pyridyl)-1H-pyridin-2-one]
< 5 | – | Cc1nccc(Nc2cc(-c3cc(N4CCCCC4C(F)(F)F)[nH]c(=O)c3)ccn2)n1 (stereo not drawn) [Example 18, 4-[2-[(2-Methylpyrimidin-4-yl)amino]-4-pyridyl]-6-[2-(trifluoromethyl)-1-piperidyl]-1H-pyridin-2-one]
< 5 | 0.003 | Cc1nccc(Nc2cc(-c3cc(N4CCN(S(=O)(=O)Cc5ccc(F)cc5)CC4C(F)(F)F)[nH]c(=O)c3)ccn2)n1 (stereo not drawn) [Example 33, 6-[4-[(4-Fluorophenyl)methylsulfonyl]-2-(trifluoromethyl)piperazin-1-yl]-4-[2-[(2-methylpyrimidin-4-yl)amino]-4-pyridyl]-1H-pyridin-2-one]
< 5 | 0.029 | O=c1cc(-c2ccnc(Nc3ncco3)c2)cc(N2CCOCC2C(F)(F)F)[nH]1 (stereo not drawn) [Example 40, 4-[2-(Oxazol-2-ylamino)-4-pyridyl]-6-[3-(trifluoromethyl)morpholin-4-yl]-1H-pyridin-2-one]
< 5 | 0.003 | Cc1nccc(Nc2cc(-c3cc(-c4ccccc4C(F)(F)F)[nH]c(=O)c3)ccn2)n1 [Example 47, 4-[2-[(2-Methylpyrimidin-4-yl)amino]-4-pyridyl]-6-[2-(trifluoromethyl)phenyl]-1H-pyridin-2-one]
55 | 0.254 | Cn1nccc1Nc1cc(-c2cc(-c3ccccc3C(F)(F)F)[nH]c(=O)c2)ccn1 [Example 50, 4-[2-[(2-Methylpyrazol-3-yl)amino]-4-pyridyl]-6-[2-(trifluoromethyl)phenyl]-1H-pyridin-2-one]
< 5 | 0.005 | CCn1cc(-c2cc(-c3ccnc(Nc4ccnc(C)n4)c3)cc(=O)[nH]2)c(C(F)(F)F)n1 [Example 59, 6-[1-Ethyl-3-(trifluoromethyl)pyrazol-4-yl]-4-[2-[(2-methylpyrimidin-4-yl)amino]-4-pyridyl]-1H-pyridin-2-one]
12 | – | Cn1cnc(Nc2cc(-c3cc(-c4ccccc4C(F)(F)F)[nH]c(=O)c3)ccn2)c1 [Example 62, 4-[2-[(1-Methylimidazol-4-yl)amino]-4-pyridyl]-6-[2-(trifluoromethyl)phenyl]-1H-pyridin-2-one]
